Data from patent US20240277829A1, “HIV-1 VACCINATION AND SAMT-247 MICROBICIDE TO PREVENT HIV-1 INFECTION” (priority 2021, published 2024).

Legend:
[1] = system: macaque rectal mucosal NK cells; assay: Frequencies and cytokine levels of macaque rectal mucosal NK/ILCs following SAMT-247 and PMA stimulation; type: cell-based
Description: Additionally, rectal tissue from 9 macaques was used for an in vitro study. The age-matched macaques from this separate study (P204) included 4 animals vaccinated against HIV and 5 naïve animals, all challenged with SHIV. Rectal tissue was obtained post challenge from 7 infected and 2 uninfected animals for the P204 study analysis. Extra cells were available from that collection and were used here for the in vitro study.
Frequencies and cytokine levels of macaque rectal mucosal NK cells and T cells following SAMT-247 and PMA stimulation. NK/ILC and T cell frequencies and cytokine levels were measured in macaque rectal mucosa. Freshly collected rectal biopsies were processed to single cells and cultured in R10 in the presence/or absence of SAMT-247 and/or PMA for 12 hours. Subsequently, cells were stained for live cells with Live/Dead Blue dye (cat. #L34962, 0.5 μl) from Thermofisher; followed by surface staining with the following: BUV737 anti-CD3 (SP34-2; cat. #741872, 5 μl), BV711 anti-CD4 (L200; cat. #563913, 5 μl), BV650 anti-NKp44 (P44-8; cat. #744302, 5 μl), Alexa700 anti-CD20 (2H7; cat. #560631, 5 μl), BV786 anti-CD45 (D058-1283; cat. #563861, 5 μl) from BD Biosciences; APC-H7 anti-CD11b (ICRF44; cat. #47-0118-42, 5 μl), PE-Cy5 anti-CD95 (ICRF44; cat. #15-0959-42, 5 μl) from eBioscience; BV570 anti-CD8 (RPA-T8; cat. #301038, 5 μl), BV605 anti-CCR6 (G034E3; cat. #353420, 5 μl), APC anti-CXCR3 (G025H7; cat. #353708, 5 μl), from Biolegend and PE-Cy7 anti-NKG2A (Z199; cat. #B10246, 5 μl) from Beckman coulter for 30 minutes at room temperature. This was followed by permeabilization with a FOX3-transcription buffer set (cat. #00-5523-00) from eBioscience according to the manufacture's recommendation and subsequently intracellular staining with the following: BV750 anti-TNF-α (MAB11; cat. #566359, 5 μl), BUV395 anti-IFN-γ (B27; cat. #563563, 5 μl), BV510 anti-GranB (GB11; cat. #563388, 5 μl), BV421 anti-IL-10 (JES3-9D7; cat. #564053, 5 μl) from BD Biosciences; PE-Cy5.5 anti-IL-17 (BL168; cat. #512314, 5 μl) from Biolegend; and FITC anti-Perforin (pf-344; cat. #3465-7, 5 μl) from MABTECH for 30 minutes at room temperature. Flow cytometry acquisitions were performed on a FACSymphony A5 and examined using FACSDiva software (BD Biosciences).

SIVmac251 = conditions: cited from earlier work
[2] = macaque rectal mucosal NK cells, PMA

CC(=O)Sc1ccccc1C(=O)NCCC(N)=O [SAMT-247]
Cytokine ([1]; NKp44^+, Mucosa, PMA): >IL-17 | Function ([1]; NKp44^+, Mucosa, PMA): >Epithelium | IFN-γ and TNF-α production [1, 2]: decreased | NKG2A^+ cells expressing granzyme B and perforin [1, 2]: increased | percentage of NKp44^+ cells producing IL-17 ([1]; mucosal cells from 9 macaques exposed in vitro): augmented | ability of NKG2A^−NKp44^− cells to produce IFN-γ ([1]; mucosal cells in vitro): tended to decrease | frequency of the NKG2A^−NKp44^− population ([1]; mucosal cells in vitro): decreased | effect in the SIVmac251 model (SIVmac251; SAMT-247 alone 3 hours prior to each challenge, animals mock immunized with empty Ad vector and alum (Helmold Hait et al. 2020)): protective effect | risk of SIVmac251 acquisition (SIVmac251; gel given four hours before challenge exposure (Helmold Hait et al. 2020)): unable to decrease
